“Also recorded” adds a separate entry of the source.
How the values were obtained:
[1] = XRPD of polymorphs after air-drying or vacuum-drying (solid form stability); assay type: physicochemical; conditions: for Crystallinity / XRPD pattern after air-drying: air-dried (overnight); for Crystallinity / XRPD pattern after vacuum-drying: vacuum dried overnight (80° C.)
Method: Large scale studies were performed with HM30181 mesylate Type A starting material on a 200 mg scale as described below. Solids were isolated by vacuum filtration. The wet cakes from filtration from DMA, DMF, and NMP slurries were washed with 1 mL to 2 mL methanol to remove solvents. […]
XRPD was performed using a Panalytical X'Pert3™ Powder XRPD and on a Si zero-background holder. The 2θ position was calibrated against a Panalytical™ 640 Si powder standard. Details of XRPD used in the experiments are listed below in Table 20.

[2] = 1H-NMR check for disproportionation or degradation; assay type: physicochemical; conditions: large scale polymorph samples, DMSO-d6
From the text: At large scale, a slurry of HM30181 mesylate Type A starting material in methanol at ambient conditions generated a mixture of HM30181 mesylate Type B and HM30181 mesylate Type A after 9 days (see FIG. 32). After 14 days, the slurry in methanol generated a HM30181 mesylate Type N polymorph. […] A scaled-up slurry of HM30181 mesylate Type A starting material in DMA yielded HM30181 mesylate Type E after 6 days (see FIG. 35). […] A scaled-up slurry of HM30181 mesylate Type A starting material in DMF at 50° C. yielded HM30181 mesylate Type F rather than the expected HM30181 mesylate Type G after 9 days (see FIG. 36). […] This slurry was heated in an attempt to generate HM30181 mesylate Type G. A scaled-up slurry of HM30181 mesylate Type A starting material in DMF at 100° C. yielded HM30181 mesylate Type F after 2 days (see FIG. 37). A scaled-up slurry of HM30181 mesylate Type A starting material in DMF at 150° C. yielded a previously unobserved XRPD pattern after 5 days (see FIG. 37).
By 1H-NMR, HM30181 mesylate Type E contained DMA, HM30181 mesylate Type F contains DMF, and HM30181 mesylate Type N contains MeOH.
Proton NMR were obtained using a Varian 200M™ NMR in deuterated DMSO (DMSO-d6).

Structure (SMILES): COc1cc2c(cc1OC)CN(CCc1ccc(-n3nnc(-c4cc(OC)c(OC)cc4NC(=O)c4cc(=O)c5ccccc5o4)n3)cc1)CC2.CS(=O)(=O)O [HM30181 mesylate Type C, HM30181 mesylate]
- Crystallinity / XRPD pattern after air-drying [1]: no significant change
- Crystallinity / XRPD pattern after vacuum-drying [1]: no loss of crystallinity was detected; also recorded: No change in crystalline pattern
- Disproportionation or degradation by 1H-NMR [2]: no disproportionation or degradation was detected

Structure (SMILES): COc1cc2c(cc1OC)CN(CCc1ccc(-n3nnc(-c4cc(OC)c(OC)cc4NC(=O)c4cc(=O)c5ccccc5o4)n3)cc1)CC2.CS(=O)(=O)O [HM30181 mesylate Type D, HM30181 mesylate]
- Crystallinity / XRPD pattern after air-drying [1]: Some loss of crystallinity; also recorded: No change in crystalline pattern

Structure (SMILES): COc1cc2c(cc1OC)CN(CCc1ccc(-n3nnc(-c4cc(OC)c(OC)cc4NC(=O)c4cc(=O)c5ccccc5o4)n3)cc1)CC2.CS(=O)(=O)O [HM30181 mesylate Type E, HM30181 mesylate]
- Crystallinity / XRPD pattern after vacuum-drying [1]: no loss of crystallinity; also recorded: No change in crystalline pattern
- Disproportionation or degradation by 1H-NMR [2]: no disproportionation or degradation was detected

Structure (SMILES): COc1cc2c(cc1OC)CN(CCc1ccc(-n3nnc(-c4cc(OC)c(OC)cc4NC(=O)c4cc(=O)c5ccccc5o4)n3)cc1)CC2.CS(=O)(=O)O [HM30181 mesylate Type F, HM30181 mesylate]
- Crystallinity / XRPD pattern after vacuum-drying [1]: Some change of pattern; also recorded: significant reduction in crystallinity
- Disproportionation or degradation by 1H-NMR [2]: no disproportionation or degradation was detected

Structure (SMILES): COc1cc2c(cc1OC)CN(CCc1ccc(-n3nnc(-c4cc(OC)c(OC)cc4NC(=O)c4cc(=O)c5ccccc5o4)n3)cc1)CC2.CS(=O)(=O)O [HM30181 mesylate Type G, HM30181 mesylate]
- Crystallinity / XRPD pattern after air-drying [1]: No reduction in crystallinity

Structure (SMILES): COc1cc2c(cc1OC)CN(CCc1ccc(-n3nnc(-c4cc(OC)c(OC)cc4NC(=O)c4cc(=O)c5ccccc5o4)n3)cc1)CC2.CS(=O)(=O)O [HM30181 mesylate Type I, HM30181 mesylate]
- Crystallinity / XRPD pattern after air-drying [1]: yielded HM30181 mesylate Type J
- Crystallinity / XRPD pattern after air-drying ([1]; listed as Type I): Type J on air-drying

Structure (SMILES): COc1cc2c(cc1OC)CN(CCc1ccc(-n3nnc(-c4cc(OC)c(OC)cc4NC(=O)c4cc(=O)c5ccccc5o4)n3)cc1)CC2.CS(=O)(=O)O [HM30181 mesylate Type N, HM30181 mesylate]
- Crystallinity / XRPD pattern after vacuum-drying [1]: some loss of crystallinity
- Disproportionation or degradation by 1H-NMR [2]: no disproportionation or degradation was detected
